Measurements: paper PMC5314825 (Journal of Pharmacy & Bioallied Sciences, 2016)

Target: aldose reductase (AR) (Capra hircus, UniProt A0A452EAQ3)
Assay: NADPH oxidation at […] nm with xylose as substrate
Type: cell-based
Conditions: read-out: % inhibition at 4.5 μg/ml

inhibition at 4.5 µg/mL: 64.6%
Compound: O=c1c(O)c(-c2ccc(O)c(O)c2)oc2cc(O)cc(O)c12 [quercetin]
